What is called IC50 is the concentration at which inhibition is half-maximal.

The target in one assay is human NaV 1.8 (Homo sapiens, UniProt Q9Y5Y9). The assay can be described thus: E-VIPR assay for detecting and measuring NaV inhibition properties. Format: cell-based. Particulars: E-VIPR assay conducted in the absence of human serum (compounds marked *); HEK cells expressing truncated human NaV 1.8; read-out: IC50. The essentials: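 Membrane-potential (coumarin/oxonol) readout after 10 s of 10 Hz biphasic electrical stimulation on E-VIPR. Compounds: 11-point 3-fold dilutions, […], 0.625% DMSO, 30 min at room temperature, human serum optional. Cells: HEK expressing truncated human NaV1.8 co-transduced with KIR2.1.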
Sequence of human NaV 1.8 (Q9Y5Y9 whole entry, looked up, the tested form may be a part): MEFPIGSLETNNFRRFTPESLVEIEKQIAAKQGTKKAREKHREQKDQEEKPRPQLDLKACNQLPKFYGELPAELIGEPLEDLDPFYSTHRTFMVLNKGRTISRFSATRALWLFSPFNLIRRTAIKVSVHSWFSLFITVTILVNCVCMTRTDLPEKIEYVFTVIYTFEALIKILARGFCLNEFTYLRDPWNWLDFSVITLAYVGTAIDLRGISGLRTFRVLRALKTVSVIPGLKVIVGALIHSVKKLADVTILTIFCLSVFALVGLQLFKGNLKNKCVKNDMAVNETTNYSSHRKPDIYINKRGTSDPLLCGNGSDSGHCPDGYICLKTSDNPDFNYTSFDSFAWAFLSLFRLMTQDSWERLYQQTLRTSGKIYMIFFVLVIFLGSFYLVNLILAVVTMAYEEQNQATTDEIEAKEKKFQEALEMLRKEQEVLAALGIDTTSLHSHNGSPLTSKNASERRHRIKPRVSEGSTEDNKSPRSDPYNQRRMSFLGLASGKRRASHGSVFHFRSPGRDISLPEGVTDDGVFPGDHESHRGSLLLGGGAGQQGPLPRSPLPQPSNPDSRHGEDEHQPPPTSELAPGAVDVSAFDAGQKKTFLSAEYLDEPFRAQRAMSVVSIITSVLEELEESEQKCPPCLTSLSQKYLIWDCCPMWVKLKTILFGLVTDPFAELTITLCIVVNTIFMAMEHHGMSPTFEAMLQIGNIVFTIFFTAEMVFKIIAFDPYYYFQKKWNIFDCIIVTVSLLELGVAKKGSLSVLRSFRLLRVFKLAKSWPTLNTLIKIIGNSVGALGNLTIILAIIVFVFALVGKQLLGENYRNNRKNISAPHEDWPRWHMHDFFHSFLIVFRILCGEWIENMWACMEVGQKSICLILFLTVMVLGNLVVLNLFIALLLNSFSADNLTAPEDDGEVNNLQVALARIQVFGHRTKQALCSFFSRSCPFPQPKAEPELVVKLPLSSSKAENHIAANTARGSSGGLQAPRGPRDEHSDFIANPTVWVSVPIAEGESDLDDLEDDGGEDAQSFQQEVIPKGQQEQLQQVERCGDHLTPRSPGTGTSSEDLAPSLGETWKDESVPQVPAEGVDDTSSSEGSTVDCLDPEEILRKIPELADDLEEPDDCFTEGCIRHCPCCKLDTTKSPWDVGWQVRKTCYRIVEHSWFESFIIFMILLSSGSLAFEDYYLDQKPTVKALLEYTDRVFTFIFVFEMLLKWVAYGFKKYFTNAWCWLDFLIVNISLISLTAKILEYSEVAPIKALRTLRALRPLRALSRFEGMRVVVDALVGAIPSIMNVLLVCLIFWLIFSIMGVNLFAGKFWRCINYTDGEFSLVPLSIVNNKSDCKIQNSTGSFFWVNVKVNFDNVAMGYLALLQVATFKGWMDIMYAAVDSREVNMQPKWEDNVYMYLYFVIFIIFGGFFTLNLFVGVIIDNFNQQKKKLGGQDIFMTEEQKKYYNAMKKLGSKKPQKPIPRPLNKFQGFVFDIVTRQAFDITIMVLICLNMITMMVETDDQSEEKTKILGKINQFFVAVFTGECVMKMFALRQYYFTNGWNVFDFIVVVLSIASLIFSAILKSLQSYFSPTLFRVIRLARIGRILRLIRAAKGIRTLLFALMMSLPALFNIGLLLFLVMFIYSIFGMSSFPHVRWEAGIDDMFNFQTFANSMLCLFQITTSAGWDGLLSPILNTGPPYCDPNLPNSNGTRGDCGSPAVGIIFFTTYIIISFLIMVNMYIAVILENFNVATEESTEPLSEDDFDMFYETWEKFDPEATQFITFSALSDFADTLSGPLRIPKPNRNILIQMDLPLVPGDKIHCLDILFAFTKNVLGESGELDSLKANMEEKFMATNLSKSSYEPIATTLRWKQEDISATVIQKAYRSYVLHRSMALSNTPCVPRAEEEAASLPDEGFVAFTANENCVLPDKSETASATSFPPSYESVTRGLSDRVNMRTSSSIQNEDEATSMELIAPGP
Take `COc1c(Oc2cnc(C(F)(F)F)c(C)c2C(=O)Nc2ccc(C(N)=O)nc2)ccc(F)c1F` [Compound 358, N-(6-carbamoyl-3-pyridyl)-5-(3,4-difluoro-2-methoxy-phenoxy)-3-methyl-2-(trifluoromethyl)pyridine-4-carboxamide]: the half-inhibitory concentration (IC50) worked out at 0.075 µM.

`COc1cc(OC(F)(F)F)ccc1Oc1cc(F)cc(F)c1C(=O)Nc1ccnc(C(N)=O)c1` [Compound 360, 4-[[2,4-difluoro-6-[2-methoxy-4-(trifluoromethoxy)phenoxy]benzoyl]amino]pyridine-2-carboxamide]: the IC50 is 0.014 µM.

As to `Cc1c(Oc2ccc(C(F)(F)F)cc2C(=O)Nc2ccnc(C(N)=O)c2)ccc(F)c1F` [Compound 361, 4-[[2-(3,4-difluoro-2-methyl-phenoxy)-5-(trifluoromethyl)benzoyl]amino]pyridine-2-carboxamide], the IC50 amounted to 0.044 µM.

As to `COc1cc(OC(F)(F)F)ccc1Oc1cc(OC)c(C)c(F)c1C(=O)Nc1ccnc(C(N)=O)c1` [Compound 362, 4-[[2-fluoro-4-methoxy-6-[2-methoxy-4-(trifluoromethoxy)phenoxy]-3-methyl-benzoyl]amino]pyridine-2-carboxamide], the IC50 worked out at 0.002 µM.

Still in this assay, the particulars now being: E-VIPR assay conducted in the presence of human serum; HEK cells expressing truncated human NaV 1.8; read-out: IC50.
As to `CC(C)(C)c1cc(Cc2ccccc2)c(C(=O)Nc2ccnc(C(N)=O)c2)cn1` [Compound 349, 4-benzyl-6-tert-butyl-N-(2-carbamoyl-4-pyridyl)pyridine-3-carboxamide], the half-inhibitory concentration (IC50) was > 3 µM.

For the compound `CC(C)(C)c1cc(Cc2ccc(F)c(F)c2)c(C(=O)Nc2ccnc(C(N)=O)c2)cn1` [Compound 350, 6-tert-butyl-N-(2-carbamoyl-4-pyridyl)-4-[(3,4-difluorophenyl)methyl]pyridine-3-carboxamide], the concentration for half-maximal inhibition (IC50) was > 3 µM.

In the case of `COc1cc(F)ccc1Oc1cc(C(F)(F)F)nc(C)c1C(=O)Nc1ccnc(C(N)=O)c1` [Compound 351, N-(2-carbamoyl-4-pyridyl)-4-(4-fluoro-2-methoxy-phenoxy)-2-methyl-6-(trifluoromethyl)pyridine-3-carboxamide], the IC50 is 0.41 µM.

With `COc1cc(OC(F)(F)F)ccc1Oc1cc(OC)c(C(F)(F)F)c(F)c1C(=O)Nc1ccnc(C(N)=O)c1` [Compound 352, 4-[[2-fluoro-4-methoxy-6-[2-methoxy-4-(trifluoromethoxy)phenoxy]-3-(trifluoromethyl)benzoyl]amino]pyridine-2-carboxamide], the IC50 worked out at 0.0018 µM.

For the compound `COc1cc(OC(F)(F)F)ccc1Oc1cc(OC)c(C(F)(F)F)c(F)c1C(=O)Nc1ccc(C(N)=O)nc1` [Compound 353, 5-[[2-fluoro-4-methoxy-6-[2-methoxy-4-(trifluoromethoxy)phenoxy]-3-(trifluoromethyl)benzoyl]amino]pyridine-2-carboxamide], the IC50 amounted to 0.0174 µM.

Consider `COc1cc(OC(F)(F)F)ccc1Oc1ccc(C(F)(F)F)c(F)c1C(=O)Nc1cc(C(N)=O)[n+]([O-])cc1C` [Compound 354, 4-[[2-fluoro-6-[2-methoxy-4-(trifluoromethoxy)phenoxy]-3-(trifluoromethyl)benzoyl]amino]-5-methyl-1-oxido-pyridin-1-ium-2-carboxamide], for which the IC50 amounted to 0.03 µM.

As to `COc1cc(OC(F)(F)F)ccc1Oc1ccc(C(F)(F)F)c(F)c1C(=O)Nc1cc(C(N)=O)ncn1` [Compound 355, 6-[[2-fluoro-6-[2-methoxy-4-(trifluoromethoxy)phenoxy]-3-(trifluoromethyl)benzoyl]amino]pyrimidine-4-carboxamide], the half-inhibitory concentration (IC50) amounted to 0.15 µM.

On to `COc1cc(OC(F)(F)F)ccc1Oc1ccc(C(F)(F)F)c(F)c1C(=O)Nc1cnnc(C(N)=O)c1` [Compound 356, 5-[[2-fluoro-6-[2-methoxy-4-(trifluoromethoxy)phenoxy]-3-(trifluoromethyl)benzoyl]amino]pyridazine-3-carboxamide], for which the IC50 amounted to 0.0033 µM.

Take `COc1cc(OC(F)(F)F)ccc1Oc1ccc(C(F)(F)F)c(F)c1C(=O)Nc1cnc(C(N)=O)nc1` [Compound 357, 5-[[2-fluoro-6-[2-methoxy-4-(trifluoromethoxy)phenoxy]-3-(trifluoromethyl)benzoyl]amino]pyrimidine-2-carboxamide]: the half-maximal inhibitory concentration (IC50) amounted to 0.015 µM.

Values taken from patent publication US12441703B2, “Carboxamides as modulators of sodium channels” (VERTEX PHARMACEUTICALS INCORPORATED, priority 2019, dated 2025).
